Measurements published in patent US20230382904A1, “SUBSTITUTED 4-([1,2,4]TRIAZOLO[1,5-a]PYRIDIN-6-YL)THIOPHENE-2-CARBOXAMIDE DERIVATIVES AND USE THEREOF” (The Johns Hopkins University, priority 2020, published 2023).

Key:
DLK = DLK (Homo sapiens (Human), UniProt Q12852); test: DLK biochemical assay (TR-FRET, MKK7 phosphorylation)
Description: DLK assay is a biochemical assay format designed to screen for inhibitors of DLK. Enzymatic activity of DLK was measured by monitoring phosphorylation of the physiological substrate MKK7 (MAP2K7, Dual specificity mitogen-activated protein kinase kinase 7). Phosphorylation was detected by a TR-FRET system whereby His-tagged MKK7 was labeled by a XL665-labeled anti-His antibody (FRET acceptor, emission 665 nm). DLK phosphorylates MKK7 at T275/S277, which was detected by an Eu-labeled anti-phospho-MKK7 (T275/S277) antibody (F RET donor, excitation 340 nm). Phosphorylation of MKK7 results in an increased TR-FRET signal (Ratio XL665-channel/Eu-channel) and inhibition of enzymatic activity of DLK decreases the TR-FRET signal.
Assay Protocol for 1536 MTP format: test compounds were predispensed (60 nl) in test plates; +3 μl DLK solution (10 nM DLK, catalytic domain, Carna Biosiences, 0.6 mM DTT in assay buffer); +2 μl substrate solution (15 nM MKK7, LDB; 60 μM ATP; 0.4 mM DTT in assay buffer); 90 min incubation at RT; +2 μl detection mix (5 nM XL665-labeled anti-His antibody, Cisbio; 0.1 nM Eu-labeled anti-phospho-MKK7 (T275/S277), Cisbio/Millipore in detection buffer); 16 h incubation at 37° C.; endpoint measurement BMG (HTRF).
Assay Protocol for 384 low volume MTP format: 1 μl of test compounds were pipetted into test plate; +5 μl DLK solution (10 nM DLK, catalytic domain, Carna Biosiences in assay buffer); +5 μl substrate solution (15 nM MKK7, LDB; 60 μM ATP, in assay buffer); 90 min incubation at RT; +9 μl detection mix (20 nM XL665-labeled anti-His antibody, Cisbio; 0.4 nM Eu-labeled anti-phospho-MKK7 (T275/S277), Cisbio/Millipore in detection buffer); 16 h incubation at 4° C.; endpoint measurement BMG (HTRF).
(§1) All indicated concentrations final concentrations.
Assay buffer (384 format): 50 mM Hepes pH 7.5, 10 mM MgCl2, 1 mM EGTA, 1 mM DTT, 0,01% Triton X-100, 0.01% BSA, 1:500 Smart Block.
(§2) Detection buffer: 25 mM Tris/HCl pH 7.5, 100 mM EDTA, 100 mM NaCl, 200 mM KF, 0.01% Tween 20, 1:500 Smart Block.

LZK = LZK (Homo sapiens (Human), UniProt O43283); test: LZK biochemical assay (TR-FRET, MKK7 phosphorylation)
Description: LZK assay is a biochemical assay format designed to screen for inhibitors of LZK. Enzymatic activity of LZK was measured by monitoring phosphorylation of the physiological substrate MKK7 (MAP2K7, Dual specificity mitogen-activated protein kinase kinase 7). Phosphorylation was detected by a TR-FRET system whereby His-tagged MKK7 was labeled by a XL665-labeled anti-His antibody (FRET acceptor, emission 665 nm). LZK phosphorylates MKK7 at T275/S277 which were detected by an Eu-labeled anti-phospho-MKK7 (T275/S277) antibody (FRET donor, excitation 340 nm). Phosphorylation of MKK7 results in an increased TR-FRET signal (Ratio XL665-channel/Eu-channel) and inhibition of enzymatic activity of LZK decreases the TR-FRET signal.
Assay Protocol for 384 low volume MTP format: 1 μl of test compound was pipetted into test plate; +5 μl LZK solution (10 nM LZK, catalytic domain, Carna Biosiences in assay buffer); +5 μl substrate solution (15 nM MKK7, LDB; 15 μM ATP, in assay buffer); 90 min incubation at RT; +5 μl detection mix (20 nM XL665-labeled anti-His antibody, Cisbio; 0.4 nM Eu-labeled anti-phospho-MKK7 (T275/S277), Cisbio/Millipore in detection buffer), 16 h incubation at 32° C.; endpoint measurement BMG (HTRF).
as §1
Assay buffer (384 format): 50 mM Hepes pH 7.5, 10 mM MgCl2, 1 mM EGTA, 1 mM DTT, 0.01% Triton X-100, 0.01% BSA, 1:500 Smart Block.
as §2

Chain of LZK (O43283 168-409): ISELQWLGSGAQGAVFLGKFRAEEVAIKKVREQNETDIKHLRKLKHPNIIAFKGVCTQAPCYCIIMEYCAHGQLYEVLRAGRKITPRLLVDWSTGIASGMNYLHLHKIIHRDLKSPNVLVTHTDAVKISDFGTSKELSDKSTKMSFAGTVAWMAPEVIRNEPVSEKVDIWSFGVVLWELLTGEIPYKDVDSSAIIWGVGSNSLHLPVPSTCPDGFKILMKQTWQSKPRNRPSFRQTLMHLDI
Chain of DLK (Q12852 1-520): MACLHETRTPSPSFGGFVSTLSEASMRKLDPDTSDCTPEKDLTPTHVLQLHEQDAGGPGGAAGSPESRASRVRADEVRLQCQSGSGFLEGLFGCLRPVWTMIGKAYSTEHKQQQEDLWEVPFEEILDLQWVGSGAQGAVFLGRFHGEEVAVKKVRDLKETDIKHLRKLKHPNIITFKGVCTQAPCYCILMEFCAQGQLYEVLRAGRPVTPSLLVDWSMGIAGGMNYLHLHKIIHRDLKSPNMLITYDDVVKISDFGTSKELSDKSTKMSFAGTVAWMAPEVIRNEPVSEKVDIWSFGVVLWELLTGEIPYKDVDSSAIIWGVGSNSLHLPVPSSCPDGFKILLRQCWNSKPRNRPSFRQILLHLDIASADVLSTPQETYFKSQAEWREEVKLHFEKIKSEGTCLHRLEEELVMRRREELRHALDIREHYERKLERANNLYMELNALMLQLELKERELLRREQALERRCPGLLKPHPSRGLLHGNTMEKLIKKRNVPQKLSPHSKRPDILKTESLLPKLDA

IC50 (DLK) [nM] | IC50 (LZK) [nM] | Compound
200 | 1700 | COC[C@H](C)NC(=O)c1cc(-c2csc(C(=O)NCc3ccccc3)c2)cn2nc(N)nc12 [Compound 67]
34 | 270 | CC(C)(C)NC(=O)c1cc(-c2csc(C(=O)NC3CCCCC3)c2)cn2nc(N)nc12 [Compound 14]
2000 | > 30000 | CCN1CCCC(NC(=O)c2cc(-c3ccc4nc(N)nn4c3)cs2)C1 (stereo not drawn) [Compound 180]
8200 | 23000 | C[C@H](NC(=O)c1cc(-c2ccc3nc(N)nn3c2)c(F)s1)c1ccc(F)cc1 [Compound 362]
710 | > 30000 | Nc1nc2ccc(-c3csc(C(=O)NCC4CCCCC4)c3)cn2n1 [Compound 187]
615 | 5000 | Nc1nc2ccc(-c3csc(C(=O)NCc4cccc(Cl)c4)c3)cn2n1 [Compound 193]
2300 | > 30000 | COC[C@H](C)NC(=O)c1cc(-c2ccc3nc(N)nn3c2)cs1 [Compound 339]
180 | 22000 | COc1ccc2c(c1)C(NC(=O)c1cc(-c3ccc4nc(N)nn4c3)cs1)CC(C)(C)O2 (stereo not drawn) [Compound 268]
530 | > 30000 | Nc1nc2ccc(-c3csc(C(=O)NCC4CCCC4)c3)cn2n1 [Compound 190]
16 | 140 | CC(C)NC(=O)c1cc(-c2csc(C(=O)N[C@H](C)c3ccccc3)c2)cn2nc(N)nc12 [Compound 97]
14 | 130 | CC(C)NC(=O)c1cc(-c2csc(C(=O)N[C@@H](C)c3nc4ccccc4o3)c2)cn2nc(N)nc12 [Compound 95]
530 | 7000 | Nc1nc2ccc(-c3csc(C(=O)NC4(c5ccc(F)cc5)COC4)c3)cn2n1 [Compound 314]
120 | 400 | CC[C@H](NC(=O)c1cc(-c2cc(C(=O)NC(C)(C)C)c3nc(N)nn3c2)cs1)c1ccc(F)cc1 [Compound 142]
360 | 1100 | C[C@@H](CO)NC(=O)c1cc(-c2csc(C(N)=O)c2)cn2nc(N)nc12 [Compound 86]
210 | 5200 | CC(C)NC(=O)c1cc(-c2csc(C(=O)N[C@@H](C)c3ccc(OC(F)(F)F)cc3)c2)cn2nc(N)nc12 [Compound 118]
42 | 730 | C[C@H](NC(=O)c1cc(-c2cc(C(=O)NC3CCNC3)c3nc(N)nn3c2)cs1)c1ccccc1 (single isomer, unassigned) [Compound 50]
260 | > 30000 | CC(C)c1ccccc1NC(=O)c1cc(-c2ccc3nc(N)nn3c2)cs1 [Compound 293]
180 | 870 | CCNC(=O)c1cc(-c2csc(C(=O)NCc3ccc(F)cc3)c2)cc2nc(N)nn12 [Compound 157]
480 | 1400 | Nc1nc2ccc(-c3csc(C(=O)NC(CO)c4ccc(F)cc4)c3)cn2n1 (stereo not drawn) [Compound 337]
2400 | 20000 | Nc1nc2ccc(-c3csc(C(=O)Nc4ccccc4OC(F)F)c3)cn2n1 [Compound 288]
6.45 |  | C[C@H](NC(=O)c1cc(-c2cc(C(=O)NC(C)(C)CO)c3nc(N)nn3c2)cs1)c1ccc(F)cc1 [Compound 78]
3900 |  | Cn1cncc1CNC(=O)c1cc(-c2ccc3nc(N)nn3c2)cs1 [Compound 252]
14 |  | CC(C)NC(=O)c1cc(-c2csc(C(=O)N[C@H](C)c3ccc(F)cc3)c2)cn2nc(N)nc12 [Compound 96]
260 |  | CC(C)c1nnc(-c2cc(-c3csc(C(=O)NCc4ccc(F)cc4)c3)cn3nc(N)nc23)s1 [Compound 393]
7600 |  | Nc1nc2ccc(-c3csc(C(=O)NC4CCOC4)c3)cn2n1 (stereo not drawn) [Compound 186]
4300 |  | NC(=O)c1cc(-c2ccc3nc(N)nn3c2)cs1 [Compound 183]

IC50 (DLK) [nM] | IC50 (LZK) [nM] | Compound
11000 |  | COc1cccc(CNC(=O)c2cc(-c3cc(C(=O)NC(C)C)c4ncnn4c3)cs2)c1 [Compound 390]
18 |  | Nc1nc2c(C(=O)N[C@H]3CCOC3)cc(-c3csc(C(=O)NCc4ccc(F)cc4)c3)cn2n1 [Compound 101]
10000 |  | CC1CCCN(C(=O)c2cc(-c3ccc4nc(N)nn4c3)cs2)C1 (stereo not drawn) [Compound 167]
5200 |  | CN(Cc1ccc(F)cc1)C(=O)c1cc(-c2ccc3nc(N)nn3c2)cs1 [Compound 166]
12000 |  | Nc1nc2ccc(-c3csc(C(=O)N4CC5(COC5)C4)c3)cn2n1 [Compound 163]
12000 |  | COc1ccc2c(c1)CN(C(=O)c1cc(-c3ccc4nc(N)nn4c3)cs1)C2 [Compound 237]
3500 |  | CC[C@H]1CC[C@H](NC(=O)c2cc(-c3ccc4nc(N)nn4c3)cs2)CC1 [Compound 178]
4100 |  | Cn1cc(CNC(=O)c2cc(-c3ccc4nc(N)nn4c3)cs2)cn1 [Compound 244]
8600 |  | Cc1nc(CNC(=O)c2cc(-c3ccc4nc(N)nn4c3)cs2)cs1 [Compound 217]
7000 |  | COc1cc(OC)nc(CNC(=O)c2cc(-c3ccc4nc(N)nn4c3)cs2)n1 [Compound 258]
2000 |  | CC(C)NC(=O)c1cc(-c2csc(C(=O)N[C@@H](C)c3ccc(F)cc3)c2)cn2ncnc12 [Compound 391]
8700 |  | CCn1cc(CNC(=O)c2cc(-c3ccc4nc(N)nn4c3)cs2)cn1 [Compound 218]
160 |  | C[C@H](NC(=O)c1cc(-c2cc(C(=O)NC3COC3)c3nc(N)nn3c2)cs1)c1ccc(F)cc1 [Compound 73]
28000 |  | COC(C)CN(C)C(=O)c1cc(-c2ccc3nc(N)nn3c2)cs1 (stereo not drawn) [Compound 164]
34 |  | COc1cccc(CNC(=O)c2cc(-c3cc(C(=O)NC(C)C)c4nc(N)nn4c3)cs2)c1 [Compound 3]
7600 |  | CN1CCC(CNC(=O)c2cc(-c3ccc4nc(N)nn4c3)cs2)CC1 [Compound 229]
8.65 |  | CC(C)NC(=O)c1cc(-c2csc(C(=O)N[C@@H](C)c3ccc(F)cc3)c2)cn2nc(N)nc12 [Compound 19, 2-Amino-6-(5-{[(1S)-1-(4-fluorophenyl)ethyl]carbamoyl}thiophen-3-yl)-N-(propan-2-yl)[1,2,4]triazolo[1,5-a]pyridine-8-carboxamide]
> 30000 |  | CCN(CC)CCNc1nc2ccc(-c3csc(C(=O)NCc4cccc(OC)c4)c3)cn2n1 [Compound 266]
3400 |  | CC(C)(C)OC(=O)N1CCCC(NC(=O)c2cc(-c3ccc4nc(N)nn4c3)cs2)C1 (stereo not drawn) [Compound 179]
2700 |  | Nc1nc2ccc(-c3csc(C(=O)NCC4CCOC4)c3)cn2n1 (stereo not drawn) [Compound 210]
> 30000 |  | COc1cccc(CNC(=O)c2cc(-c3ccc4nc(NCCN5CCOCC5)nn4c3)cs2)c1 [Compound 262]
35 |  | CC(C)NC(=O)c1cc(-c2csc(C(=O)NCc3ccc(F)cc3)c2)cn2nc(N)nc12 [Compound 4, 2-Amino-6-(5-{[(4-fluorophenyl)methyl]carbamoyl}thiophen-3-yl)-N-(propan-2-yl)[1,2,4]triazolo[1,5-a]pyridine-8-carboxamide]
2900 |  | Nc1nc2ccc(-c3csc(C(=O)Nc4ccccc4)c3)cn2n1 [Compound 259]
3000 |  | Nc1nc2ccc(-c3csc(C(=O)NCC4CCCCO4)c3)cn2n1 (stereo not drawn) [Compound 208]
4700 |  | Nc1nc2ccc(-c3csc(C(=O)NCC4CCCO4)c3)cn2n1 (stereo not drawn) [Compound 189]
> 30000 |  | CCCNc1nc2ccc(-c3csc(C(=O)NCc4cccc(OC)c4)c3)cn2n1 [Compound 253]
